# Test results reported in ChEMBL document CHEMBL5604063, “ASAP - DENV-2 NS2B-NS3 protease fluorescence dose response” (2024).
# pIC50: −log10 of the molar value.
# Target: Genome polyprotein (dengue virus type 2, UniProt P29990)
# Assay type: functional, Thailand/16681/1984
# Chain of Genome polyprotein (P29990 1346-1475 limits assumed): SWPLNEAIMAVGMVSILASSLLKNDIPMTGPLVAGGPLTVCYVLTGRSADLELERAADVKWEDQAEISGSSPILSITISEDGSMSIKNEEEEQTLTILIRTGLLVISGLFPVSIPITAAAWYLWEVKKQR
# Chain of Genome polyprotein (P29990 1476-2093 limits assumed): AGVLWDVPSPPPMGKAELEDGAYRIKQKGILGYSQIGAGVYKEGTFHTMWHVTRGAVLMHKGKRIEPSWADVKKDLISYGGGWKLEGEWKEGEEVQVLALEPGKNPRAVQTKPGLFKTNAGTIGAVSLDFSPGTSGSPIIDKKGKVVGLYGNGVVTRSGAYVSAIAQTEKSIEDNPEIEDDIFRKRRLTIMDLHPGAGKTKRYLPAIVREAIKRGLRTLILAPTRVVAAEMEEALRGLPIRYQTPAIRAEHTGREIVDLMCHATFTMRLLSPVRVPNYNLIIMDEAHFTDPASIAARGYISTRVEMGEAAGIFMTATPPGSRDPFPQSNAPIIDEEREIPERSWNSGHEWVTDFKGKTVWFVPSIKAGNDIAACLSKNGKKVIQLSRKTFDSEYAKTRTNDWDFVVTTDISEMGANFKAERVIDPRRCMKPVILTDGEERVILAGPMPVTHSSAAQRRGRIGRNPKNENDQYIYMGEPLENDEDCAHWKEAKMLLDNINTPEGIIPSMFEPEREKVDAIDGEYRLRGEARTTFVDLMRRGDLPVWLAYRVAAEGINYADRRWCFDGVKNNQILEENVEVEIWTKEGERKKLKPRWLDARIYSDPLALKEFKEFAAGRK
row,Structure (SMILES),pIC50
1,NCc1ccc(-c2ncc(OCC3CCNCC3)nc2-c2ccc(-c3ccoc3)cc2)cc1,< 4.00
2,NCc1cccc(NC(=O)[C@H](NC(=O)OCc2ccccc2)C(C2CCC2)C2CCC2)c1,< 4.00
3,CN1CCN(C2CN(C(=O)c3cc(Br)cc(C=O)c3)C2)CC1,< 4.00
4,O=S(=O)(Nc1ccc(Cl)cc1CO)c1ccc(Oc2ccccc2Cl)cc1,4.10
5,CN1CCN(C2CCN(C(=O)c3cc(C=O)n(C)c3)CC2)CC1,< 4.00
6,Cn1nccc1-c1ccc([C@@H](NC(=O)OCc2ccccc2)C(=O)Nc2cccc(CN)c2)cc1,< 4.00
7,c1ccc2c(CN3CCC(c4nn[nH]n4)CC3)c[nH]c2c1,< 4.00
8,COC(=O)c1cc(Cl)ccc1NS(=O)(=O)c1ccc(O)cc1,< 4.00
9,CCn1cc(-c2cnn(C)n2)nc(N2CC[C@@H](CO)C2)c1=O,< 4.00
10,O=C(O)c1cc(Cl)cc(NS(=O)(=O)c2ccc(Oc3ccccc3Cl)cc2)c1,< 4.00
11,CCOc1cccc(N2CC[C@@H](CO)C2)c1,< 4.00
12,NCc1cccc(NC(=O)[C@@H](NC(=O)OCc2ccccc2)c2cccc(Br)c2)c1,4.07
13,N#Cc1cc(F)cc(N2CC[C@H](CO)C2)c1,< 4.00
14,CCn1cc(-c2cnn(-c3ccccc3)c2)nc(N2CC[C@@H](CO)C2)c1=O,< 4.00
15,Cc1cnc(Oc2ccc(S(=O)(=O)Nc3ccc(Cl)cc3C(=O)O)cc2)cn1,< 4.00
16,O=C(O)c1cc(Cl)ccc1NS(=O)(=O)c1ccc(Oc2ccccc2Cl)nc1,4.33
17,Cc1cc(C)c(C(=O)N2C[C@H]3CN(C)CC[C@@]3(CO)C2)cc1C=O,< 4.00
18,CN(C)C[C@@]1(O)CCN(C(=O)c2cc(C=O)c[nH]2)C1,< 4.00
19,COC(=O)c1cc(Cl)ccc1NS(=O)(=O)c1ccc(Oc2ccccc2Cl)nc1,< 4.00
20,COC(=O)[C@@H]1CC2(CC[C@@H]1NS(=O)(=O)c1ccc(Oc3ccccc3Cl)cc1)CC2,< 4.00
21,NCc1cccc(N2CCN(C(=O)OCc3ccccc3)[C@H](c3ccc(OCc4ccccc4)cc3)C2=O)c1,4.13
22,NCc1cccc(NC(=O)[C@]2(NC(=O)OCc3ccccc3)CCOc3ccccc32)c1,< 4.00

row,Structure (SMILES),pIC50
1,O=C(O)c1cc(Cl)ccc1NS(=O)(=O)c1ccc(N[C@H]2CCOC2)nc1,< 4.00
2,COc1cc(Cl)cc(C(=O)O)c1NS(=O)(=O)c1ccc(Oc2ccccc2Cl)cc1,4.65
3,NCc1cccc(NC(=O)CN2CCN(C(=O)OCc3ccccc3)CC2)c1,< 4.00
4,CCn1cc(-c2cc(F)ccc2C)nc(N2CC[C@@H](CO)C2)c1=O,< 4.00
5,O=C(NCc1cc(Cl)ccc1NS(=O)(=O)c1ccc(Oc2ccccc2Cl)cc1)C1CC1,< 4.00
6,NCc1cccc(NC(=O)[C@H](NC(=O)OCc2ccccc2)C2CCCCC2)c1,< 4.00
7,CN(c1ncnc(-c2ccsc2C=O)n1)C1CCNCC1,< 4.00
8,O=C(O)c1ccsc1NS(=O)(=O)c1ccc(Oc2ccccc2Cl)cc1,4.70
9,C[C@@H](NC(=O)c1ccc2[nH]cc(C=O)c2c1)C1=CCN(C)CC1,< 4.00
10,CCc1ccc(-c2cn(CC)c(=O)c(N3CC[C@@H](CO)C3)n2)s1,< 4.00
11,C[C@H]1CN(C(=O)Cc2ccc(C=O)[nH]2)CCN1C1CCCC1,< 4.00
12,CCn1cc(-c2cnccc2C)nc(N2CC[C@@H](CO)C2)c1=O,< 4.00
13,O=C(O)c1cscc1NS(=O)(=O)c1ccc(Oc2ccccc2Cl)cc1,4.47
14,CC1(C)CCC([C@@H](NC(=O)OCc2ccccc2)C(=O)Nc2cccc(CN)c2)CC1,< 4.00
15,O=C(O)CN(c1ccc(Cl)cc1)S(=O)(=O)c1ccc(Oc2ccccc2Cl)cc1,4.06
16,O=Cc1ccc(CC(=O)N2C[C@@H](O)[C@H](N3CCOCC3)C2)cc1,< 4.00
17,Cc1nccnc1Oc1ccc(S(=O)(=O)Nc2ccc(Cl)cc2C(=O)O)cc1,< 4.00
18,NCc1cccc(NC(=O)C2(CNC(=O)OCc3ccccc3)CCCC2)c1,< 4.00
19,O=C(O)c1cc(Cl)ccc1NS(=O)(=O)c1ccc(OCc2ncccn2)cc1,< 4.00
20,NC(=O)c1ccc(N2CC[C@@H](CO)C2)cc1,< 4.00
21,O=C(NCC1CC1)[C@H]1CCCC[C@H]1NS(=O)(=O)c1ccc(Oc2ccccc2Cl)cc1,< 4.00
